# In US20240368150A1 (Hoffmann-La Roche Inc., priority 2021, published 2024):
# Read-outs that look alike come from different tables or passages of the source.
# Legend:
# primary human T-cells [1] = assay: Proliferation assay after 5 days (CellTiter-Glo, CD3 stimulation; PBS counter screen); format: cell-based; conditions: CD3 stimulation; for Emax / Emax proliferation (% activation): 5 days, normalized to reference compound A1 as stimulator control = 100%, DMSO neutral control; for Emax: read-out: Emax proliferation (% activation); for EC50: primary human T-cells, CellTiter-Glo after 5 days, EC50 of fitted sigmoidal curve, read-out: Tcell Proliferation CD3 EC50
# Procedure: Compounds are then added (see next section) to medium only plates.
# Cells are assessed for proliferation 5 days later by measuring […] using CellTiterGlo (Promega).
# After 5 days, for detection of ATP which is directly proportional to the number of cells present per well, the CellTiter-Glo® 2.0 Reagent is used. After visual control for toxicity or precipitations of the tested compounds, the plates are equilibrated to room temperature for 45 minutes. CellTiter-Glo® 2.0 Reagent is equilibrated to room temperature as well. After equilibration, an equal amount of CellTiter-Glo reagent is added to the cells (80 μl/well) with an electronic multichannel pipette. Plates are placed on a rocking platform for 15 minutes at room temperature. After incubation, the bottom of the plates is sealed with backing tape. Luminescence is measured with PHERAstar FSX (interval time 0.5 sec, gain 3000, focal height 15 mm) and exported as CSV file for analysis in Genedata screener.
# Compounds which activate unstimulated cells (see IL2 measurements) or compounds which negatively affected viability were flagged.
# primary human T-cells [2] = tested on: primary human T-cells
Structure (SMILES),EC50 (primary human T-cells [2]) [nM],"Emax (primary human T-cells [1]; Homo sapiens, T-cell, 120 h) [%]",EC50 (primary human T-cells [1]) [nM],Emax proliferation (% activation) (primary human T-cells [1]),"EC50 (primary human T-cells [1]; Homo sapiens, T-cell, 120 h) [nM]"
"CC(Nc1nnc(-c2cc3c(cc2F)S(=O)(=O)C[C@H](N)C(=O)N3Cc2ccc(Cl)cc2)o1)C1CC1(F)F (single isomer, unassigned) [Example 495]",799,93,263,–,–
"CC(Nc1nnc(-c2cc3c(cc2F)S(=O)(=O)C[C@H](N)C(=O)N3Cc2ccc(Cl)cc2)o1)C1CC1(F)F (single isomer, unassigned) [Example 496]",> 10000,–,1150,91,–
"N[C@H]1C[S+]([O-])c2cc(F)c(-c3noc(N4CCOCC4)n3)cc2N(Cc2ccc(Cl)cc2)C1=O (single isomer, unassigned; epimer a) [Example 209]",5810,92,–,–,4100
"CC(C)(C)c1nc(-c2cc3c(cc2F)[S+]([O-])C[C@H](N)C(=O)N3Cc2ccc(Cl)cc2)no1 (single isomer, unassigned; epimer a) [Example 340]",3080,121,1350,–,–
"COC(F)(c1nnc(-c2ccc3c(c2)N(Cc2ccc(OC(F)(F)F)cc2)C(=O)[C@@H](N)C[S+]3[O-])o1)C(F)(F)F (single isomer, unassigned; epimer a) [Example 425]",> 10000,–,–,81,1880
"N[C@H]1C[S+]([O-])c2cc(F)c(-c3noc(N4CCOC5(CC5)C4)n3)cc2N(Cc2ccc(Cl)cc2)C1=O (single isomer, unassigned; epimer b) [Example 210]",7170,–,1550,–,–
"COC(F)(c1nc(-c2cc3c(cc2F)[S+]([O-])C[C@H](N)C(=O)N3Cc2ccc(Cl)cc2)no1)C(F)(F)F (single isomer, unassigned; epimer b) [Example 339]",1300,–,421,141,–
"CN1CC(c2nc(-c3cc4c(cc3F)[S+]([O-])C[C@H](N)C(=O)N4Cc3ccc(Cl)cc3)no2)CC(F)(F)C1 (single isomer, unassigned; epimer b) [Example 343]",4830,–,2620,97,–
"COC(F)(c1nnc(-c2ccc3c(c2)N(Cc2ccc(OC(F)(F)F)cc2)C(=O)[C@@H](N)C[S+]3[O-])o1)C(F)(F)F (single isomer, unassigned; epimer b) [Example 426]",1290,–,1400,109,–
"CC(C)(C)c1cn(-c2cc3c(cc2F)S(=O)(=O)C[C@H](N)C(=O)N3Cc2ccc(Cl)cc2)nn1 [Example 5, (3R)-3-amino-7-(4-tert-butyltriazol-1-yl)-5-[(4-chlorophenyl)methyl]-8-fluoro-1,1-dioxo-2,3-dihydro-1λ^6,5-benzothiazepin-4-one]",991,154,–,–,2140
"CN1CC[C@@H](n2nnc(-c3cc4c(cc3F)S(=O)(=O)C[C@H](N)C(=O)N4Cc3ccc(Cl)cc3)n2)C1 [Example 10, (3R)-3-amino-5-[(4-chlorophenyl)methyl]-8-fluoro-1,1-dioxo-7-[2-[(3R)-1-methylpyrrolidin-3-yl]tetrazol-5-yl]-2,3-dihydro-1λ^6,5-benzothiazepin-4-one]",3100,78,–,–,4040
"CC(=O)N1CCCC(n2nnc(-c3cc4c(cc3F)S(=O)(=O)C[C@H](N)C(=O)N4Cc3ccc(Cl)cc3)n2)C1 (stereo partly drawn) [Example 13, (3R)-7-[2-(1-acetyl-3-piperidyl)tetrazol-5-yl]-3-amino-5-[(4-chlorophenyl)methyl]-8-fluoro-1,1-dioxo-2,3-dihydro-1λ^6,5-benzothiazepin-4-one]",> 10000,87,–,–,3510
"NC(Cn1nnc(-c2cc3c(cc2F)S(=O)(=O)C[C@H](N)C(=O)N3Cc2ccc(Cl)cc2)n1)C(F)(F)F (stereo partly drawn) [Example 14, (3R)-3-amino-7-[2-(2-amino-3,3,3-trifluoro-propyl)tetrazol-5-yl]-5-[(4-chlorophenyl)methyl]-8-fluoro-1,1-dioxo-2,3-dihydro-1λ^6,5-benzothiazepin-4-one]",917,131,–,–,810
"Cn1nnc(-c2cc3c(cc2F)S(=O)(=O)C[C@H](N)C(=O)N3Cc2ccc(Cl)cc2)n1 [Example 16, (3R)-3-amino-5-[(4-chlorophenyl)methyl]-8-fluoro-7-(2-methyltetrazol-5-yl)-1,1-dioxo-2,3-dihydro-1λ^6,5-benzothiazepin-4-one]",2830,65,–,–,3660
"CCc1nc(-c2cc3c(cc2F)S(=O)(=O)C[C@H](N)C(=O)N3Cc2ccc(Cl)cc2)no1 [Example 290, (3R)-3-amino-5-[(4-chlorophenyl)methyl]-7-(5-ethyl-1,2,4-oxadiazol-3-yl)-8-fluoro-1,1-dioxo-2,3-dihydro-1λ^6,5-benzothiazepin-4-one]",–,139,–,–,744
"CC(C)(NCC(F)(F)F)c1nc(-c2cc3c(cc2F)S(=O)(=O)C[C@H](N)C(=O)N3Cc2ccc(Cl)cc2)no1 [Example 298, (3R)-3-amino-5-[(4-chlorophenyl)methyl]-8-fluoro-7-[5-[1-methyl-1-(2,2,2-trifluoroethylamino)ethyl]-1,2,4-oxadiazol-3-yl]-1,1-dioxo-2,3-dihydro-1λ^6,5-benzothiazepin-4-one]",–,162,–,–,–
"COC(=O)N1CCC(C)(c2nc(-c3cc4c(cc3F)S(=O)(=O)C[C@H](N)C(=O)N4Cc3ccc(Cl)cc3)no2)CC1 [Example 307, methyl 4-[3-[(3R)-3-amino-5-[(4-chlorophenyl)methyl]-8-fluoro-1,1,4-trioxo-2,3-dihydro-1λ^6,5-benzothiazepin-7-yl]-1,2,4-oxadiazol-5-yl]-4-methyl-piperidine-1-carboxylate]",–,143,–,–,–
"CC(C)(C)c1ncn(-c2cc3c(cc2F)S(=O)(=O)C[C@H](N)C(=O)N3Cc2ccc(Cl)cc2)n1 [Example 526, (3R)-3-amino-7-(3-tert-butyl-1,2,4-triazol-1-yl)-5-[(4-chlorophenyl)methyl]-8-fluoro-1,1-dioxo-2,3-dihydro-1λ^6,5-benzothiazepin-4-one]",–,125,–,–,–

# Now from value to compound, other results behind:
EC50 (primary human T-cells [2]) [nM],Structure (SMILES),"Emax (primary human T-cells [1]; Homo sapiens, T-cell, 120 h) [%]",EC50 (primary human T-cells [1]) [nM],Emax proliferation (% activation) (primary human T-cells [1]),"EC50 (primary human T-cells [1]; Homo sapiens, T-cell, 120 h) [nM]"
> 10000,"CN1CC(c2nc(-c3cc4c(cc3F)[S+]([O-])C[C@H](N)C(=O)N4Cc3ccc(Cl)cc3)no2)CC(F)(F)C1 (single isomer, unassigned; epimer a) [Example 342]",–,4850,80,–
> 10000,"N[C@H]1C[S+]([O-])c2ccc(-c3nnc(CC(F)(F)F)o3)cc2N(Cc2ccc(OC(F)(F)F)cc2)C1=O (single isomer, unassigned; epimer a) [Example 427]",26,> 10000,–,–
> 10000,"CC(C)(C)c1nc(-c2cc3c(cc2F)[S+]([O-])C[C@H](N)C(=O)N3Cc2ccc(Cl)cc2)no1 (single isomer, unassigned; epimer b) [Example 341]",–,3010,105,–
1580,"N[C@H]1C[S+]([O-])c2ccc(-c3nnc(CC(F)(F)F)o3)cc2N(Cc2ccc(OC(F)(F)F)cc2)C1=O (single isomer, unassigned; epimer b) [Example 428]",–,3280,38,–
> 20000,"CCn1cc(-c2cc3c(cc2F)S(=O)(=O)C[C@H](N)C(=O)N3Cc2ccc(Cl)cc2)nn1 [Example 6, (3R)-3-amino-5-[(4-chlorophenyl)methyl]-7-(1-ethyltriazol-4-yl)-8-fluoro-1,1-dioxo-2,3-dihydro-1λ^6,5-benzothiazepin-4-one]",39,–,–,> 20000
1320,"CN1CC[C@H](n2nnc(-c3cc4c(cc3F)S(=O)(=O)C[C@H](N)C(=O)N4Cc3ccc(Cl)cc3)n2)C1 [Example 9, (3R)-3-amino-5-[(4-chlorophenyl)methyl]-8-fluoro-1,1-dioxo-7-[2-[(3S)-1-methylpyrrolidin-3-yl]tetrazol-5-yl]-2,3-dihydro-1λ^6,5-benzothiazepin-4-one]",63,–,–,4660
1300,"CC(=O)N1CCC(n2nnc(-c3cc4c(cc3F)S(=O)(=O)C[C@H](N)C(=O)N4Cc3ccc(Cl)cc3)n2)CC1 [Example 11, (3R)-7-[2-(1-acetyl-4-piperidyl)tetrazol-5-yl]-3-amino-5-[(4-chlorophenyl)methyl]-8-fluoro-1,1-dioxo-2,3-dihydro-1λ^6,5-benzothiazepin-4-one]",107,–,–,1360
832,"COC(=O)N1CCC(n2nnc(-c3cc4c(cc3F)S(=O)(=O)C[C@H](N)C(=O)N4Cc3ccc(Cl)cc3)n2)C1 (stereo partly drawn) [Example 15, methyl 3-[5-[(3R)-3-amino-5-[(4-chlorophenyl)methyl]-8-fluoro-1,1,4-trioxo-2,3-dihydro-1λ^6,5-benzothiazepin-7-yl]tetrazol-2-yl]pyrrolidine-1-carboxylate]",109,–,–,2440
